Assay results from ChEMBL document CHEMBL1153642, “Induction of apoptosis in HuH-7 cancer cells by monoterpene and beta-carboline indole alkaloids isolated from the leaves of Tabernaemontana elegans” (2009).
Activity calls are given as the source filed them. The rule behind the calls is not given here.

Columns and labels:
[1] = tested on: Huh-7; test: Induction of apoptosis in human HuH7 cells assessed as cell death after 24 hrs by trypan blue dye exclusion assay; format: functional, cell-based
[2] = tested on: Huh-7; test: Induction of apoptosis in human HuH7 cells assessed as change in nuclear morphology after 48 hrs using Hoechst staining; format: functional
[3] = tested on: Huh-7; test: Induction of apoptosis in human HuH7 cells assessed as change in nuclear morphology after 72 hrs using Hoechst staining; format: functional
[4] = tested on: Huh-7; test: Induction of apoptosis in human HuH7 cells assessed as change in nuclear morphology after 24 hrs using Hoechst staining; format: functional
[5] = tested on: Huh-7; test: Induction of apoptosis in human HuH7 cells assessed as increase in caspase-3 activity after 12 hrs; format: functional, cell-based
[6] = tested on: Huh-7; test: Induction of necrosis in human HuH7 cells; format: functional, cell-based

Row | SMILES | Activity [1] | Activity [2] [%] | Activity [3] [%] | Activity [4] [%] | Activity [5] | inhibition [6]
1 | Cc1cc2c([nH]c3ccccc32)c2[n+]1C(C)NCC2 (configuration not stated) | Active |  |  |  |  | 
2 | Cc1cc2c3ccccc3n3c2c(n1)CCNC3C (configuration not stated) | Active |  |  |  |  | 
3 | CC[C@@H]1CN(C)[C@H]2Cc3c([nH]c4ccccc34)C(=O)C[C@@H]1[C@H]2C(=O)OC [TABERNAEMONTANINE] |  | <25 | <25 | 40 | Active | inactive
4 | C/C=C1/CN(C)[C@H]2Cc3c([nH]c4ccccc34)C(=O)C[C@H]1[C@@H]2C(=O)OC [VOBASINE] |  | <25 | <25 | 40 | Active | inactive
